Experimental data reported in patent US20240100170A1, “CYCLIC-AMP RESPONSE ELEMENT BINDING PROTEIN (CBP) AND/OR ADENOVIRAL E1A BINDING PROTEIN OF 300 KDA (P300) DEGRADATION COMPOUNDS AND METHODS OF USE” (CULLGEN (SHANGHAI), INC., priority 2020, published 2024).
Read-outs that look alike come from different tables or passages of the source.

Assays:
[1] = tested on: LNCaP prostate cancer cell; test: LNCaP cell viability (CellTiter-Glo); assay type: cell-based; conditions: Homo sapiens, 72 h; LNCaP cell viability, 3 days, CellTiter-Glo; Table 4
Outline: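 LNCaP cells (5000/well, RPMI 1640 + 10% FBS, 37 °C) treated with compounds in 12-point 3-fold serial dilution for three days. Viability read by CellTiter-Glo luminescence, normalized to untreated cells; IC50 from least-squares nonlinear regression.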

P300 = P300 (Homo sapiens, UniProt Q09472); test: percentage of inhibition (degradation) of p300 at 10 nM, Tables 2-4; assay type: cell-based; parameters: LNCaP or 22RV1 cells that express CBP/P300 proteins were treated with GNE-781 or the bivalent compounds; endogenous in cells; host or cells: LNCaP or 22RV1 (not given); conditions: read-out: Degradation (10 nM)
P300, sequence (Q09472 whole entry): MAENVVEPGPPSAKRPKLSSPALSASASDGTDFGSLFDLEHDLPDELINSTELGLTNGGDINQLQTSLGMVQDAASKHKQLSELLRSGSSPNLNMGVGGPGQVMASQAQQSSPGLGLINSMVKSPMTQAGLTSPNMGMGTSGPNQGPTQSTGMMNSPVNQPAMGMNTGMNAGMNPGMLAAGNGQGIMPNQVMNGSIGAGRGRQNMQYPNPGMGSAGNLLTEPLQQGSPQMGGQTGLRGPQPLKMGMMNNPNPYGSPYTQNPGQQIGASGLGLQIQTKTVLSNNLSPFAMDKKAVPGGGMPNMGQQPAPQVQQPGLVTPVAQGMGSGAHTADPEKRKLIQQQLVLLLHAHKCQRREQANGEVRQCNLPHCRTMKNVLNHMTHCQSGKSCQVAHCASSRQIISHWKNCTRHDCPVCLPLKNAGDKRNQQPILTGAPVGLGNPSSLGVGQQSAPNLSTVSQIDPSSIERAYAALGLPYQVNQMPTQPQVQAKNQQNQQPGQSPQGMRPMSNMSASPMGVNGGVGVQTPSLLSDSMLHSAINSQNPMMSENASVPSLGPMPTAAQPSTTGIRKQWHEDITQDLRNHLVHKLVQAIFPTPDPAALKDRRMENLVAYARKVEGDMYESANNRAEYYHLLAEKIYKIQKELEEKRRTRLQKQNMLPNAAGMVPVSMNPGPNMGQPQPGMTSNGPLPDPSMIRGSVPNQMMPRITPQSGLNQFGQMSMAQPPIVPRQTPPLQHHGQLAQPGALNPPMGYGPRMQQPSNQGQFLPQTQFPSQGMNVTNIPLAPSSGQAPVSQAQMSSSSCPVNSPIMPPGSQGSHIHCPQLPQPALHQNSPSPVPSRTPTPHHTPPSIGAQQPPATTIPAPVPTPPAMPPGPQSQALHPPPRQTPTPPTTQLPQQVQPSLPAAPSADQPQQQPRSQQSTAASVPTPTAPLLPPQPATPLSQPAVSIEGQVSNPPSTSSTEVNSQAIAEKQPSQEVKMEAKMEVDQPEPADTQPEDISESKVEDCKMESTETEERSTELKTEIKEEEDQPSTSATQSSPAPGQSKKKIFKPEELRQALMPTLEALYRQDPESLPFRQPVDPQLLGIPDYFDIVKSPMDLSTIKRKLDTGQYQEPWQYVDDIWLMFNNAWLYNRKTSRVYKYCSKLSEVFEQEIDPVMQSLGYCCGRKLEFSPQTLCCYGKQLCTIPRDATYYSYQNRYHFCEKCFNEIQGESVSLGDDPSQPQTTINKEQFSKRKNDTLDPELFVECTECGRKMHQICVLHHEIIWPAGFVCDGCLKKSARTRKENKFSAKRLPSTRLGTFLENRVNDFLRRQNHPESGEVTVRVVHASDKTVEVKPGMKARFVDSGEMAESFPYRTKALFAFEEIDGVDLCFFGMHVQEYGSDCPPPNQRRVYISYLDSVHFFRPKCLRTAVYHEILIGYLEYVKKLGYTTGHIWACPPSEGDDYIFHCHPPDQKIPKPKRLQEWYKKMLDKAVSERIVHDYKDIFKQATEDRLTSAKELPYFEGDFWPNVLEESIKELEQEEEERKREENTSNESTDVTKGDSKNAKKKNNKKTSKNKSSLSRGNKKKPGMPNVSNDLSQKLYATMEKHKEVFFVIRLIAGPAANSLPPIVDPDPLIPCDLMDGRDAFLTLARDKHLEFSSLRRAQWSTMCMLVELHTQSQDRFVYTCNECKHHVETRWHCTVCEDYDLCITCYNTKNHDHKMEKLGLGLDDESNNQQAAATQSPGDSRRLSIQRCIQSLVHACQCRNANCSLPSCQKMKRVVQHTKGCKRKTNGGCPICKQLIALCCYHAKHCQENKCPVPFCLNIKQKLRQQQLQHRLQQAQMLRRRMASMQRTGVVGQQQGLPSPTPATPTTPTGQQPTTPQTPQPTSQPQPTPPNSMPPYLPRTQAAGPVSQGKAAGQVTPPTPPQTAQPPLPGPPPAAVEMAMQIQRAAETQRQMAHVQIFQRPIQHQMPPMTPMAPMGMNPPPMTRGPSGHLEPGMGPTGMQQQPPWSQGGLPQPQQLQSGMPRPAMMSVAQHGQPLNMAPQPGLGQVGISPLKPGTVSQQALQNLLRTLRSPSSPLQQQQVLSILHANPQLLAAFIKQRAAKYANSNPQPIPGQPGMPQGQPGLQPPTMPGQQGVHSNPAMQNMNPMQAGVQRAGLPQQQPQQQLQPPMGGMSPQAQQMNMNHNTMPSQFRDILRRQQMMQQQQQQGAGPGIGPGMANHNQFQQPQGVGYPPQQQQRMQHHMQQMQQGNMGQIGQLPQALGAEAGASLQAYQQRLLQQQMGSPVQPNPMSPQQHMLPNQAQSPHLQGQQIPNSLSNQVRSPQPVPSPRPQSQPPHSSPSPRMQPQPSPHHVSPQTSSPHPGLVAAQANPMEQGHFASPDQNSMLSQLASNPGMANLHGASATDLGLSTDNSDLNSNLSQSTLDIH
Outline: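 Degradation was measured at 10 nM. Cells or tissue were lysed in RIPA with protease and phosphatase inhibitors for 30 min at 4 °C and cleared, and protein was quantified by BCA. Lysates were resolved by SDS-PAGE, detected by chemiluminescent immunoblot, and bands were quantified by densitometry.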

| SMILES | IC50 [1] [nM] | inhibition at 0.01 µM (P300; p300, 10 nM, Table 4) [%] | inhibition at 0.01 µM (P300) [%] |
| --- | --- | --- | --- |
| CC(=O)N1CCc2c(c(N3CCCc4cc(-c5cnn(C)c5)c(C(F)F)cc43)nn2C2CCN(CCN3CCC4(CC3)CN(c3cccc5c3C(=O)N(C3CCC(=O)NC3=O)C5=O)C4)CC2)C1 (stereo not drawn) [P-245, 4-(7-(2-(4-(5-acetyl-3-(7-(difluoromethyl)-6-(1-methyl-1H-pyrazol-4-yl)-3,4-dihydroquinolin-1(2H)-yl)-4,5,6,7-tetrahydro-1H-pyrazolo[4,3-c]pyridin-1-yl)piperidin-1-yl)ethyl)-2,7-diazaspiro[3.5]nonan-2-yl)-2-(2,6-dioxopiperidin-3-yl)isoindoline-1,3-dione] | > 500 | – | 20 to 50 |
| CC(=O)N1CCc2c(c(N3CCCc4cc(-c5cnn(C)c5)c(C(F)F)cc43)nn2C2CCN(CCCN3CCC(Cn4c(=O)n(C5CCC(=O)NC5=O)c5ccccc54)CC3)CC2)C1 (stereo not drawn) [P-235, 3-(3-((1-(3-(4-(5-Acetyl-3-(7-(difluoromethyl)-6-(1-methyl-1H-pyrazol-4-yl)-3,4-dihydroquinolin-1(2H)-yl)-4,5,6,7-tetrahydro-1H-pyrazolo[4,3-c]pyridin-1-yl)piperidin-1-yl)propyl)piperidin-4-yl)methyl)-2-oxo-2,3-dihydro-1H-benzo[d]imidazol-1-yl)piperidine-2,6-dione] | 844 | < 20 | – |
| CC(=O)N1CCc2c(c(N3CCCc4cc(-c5cnn(C)c5)c(C(F)F)cc43)nn2C2CCN(C(=O)CN3CCN(CC#Cc4ccc5c(c4)n(C)c(=O)n5C4CCC(=O)NC4=O)CC3)CC2)C1 (stereo not drawn) [P-219, 3-(5-(3-(4-(2-(4-(5-Acetyl-3-(7-(difluoromethyl)-6-(1-methyl-1H-pyrazol-4-yl)-3,4-dihydroquinolin-1(2H)-yl)-4,5,6,7-tetrahydro-1H-pyrazolo[4,3-c]pyridin-1-yl)piperidin-1-yl)-2-oxoethyl)piperazin-1-yl)prop-1-yn-1-yl)-3-methyl-2-oxo-2,3-dihydro-1H-benzo[d]imidazol-1-yl)piperidine-2,6-dione] | 64.7 | 20 to 50 | – |
| CC(=O)N1CCc2c(c(N3CCCc4cc(-c5cnn(C)c5)c(C(F)F)cc43)nn2C2CCN(CCCN3CCC(CCc4cccc5c4C(=O)N(C4CCC(=O)NC4=O)C5=O)CC3)CC2)C1 (stereo not drawn) [P-190, 4-(2-(1-(3-(4-(5-acetyl-3-(7-(difluoromethyl)-6-(1-methyl-1H-pyrazol-4-yl)-3,4-dihydroquinolin-1(2H)-yl)-4,5,6,7-tetrahydro-1H-pyrazolo[4,3-c]pyridin-1-yl)piperidin-1-yl)propyl)piperidin-4-yl)ethyl)-2-(2,6-dioxopiperidin-3-yl)isoindoline-1,3-dione] | 41.4 | 50 to 80 | – |
| CC(=O)N1CCc2c(c(N3CCCc4cc(-c5cnn(C)c5)c(C(F)F)cc43)nn2C2CCN(CCCN3CCN(c4cccc5c4C(=O)N(C4CCC(=O)NC4=O)C5=O)CC3)CC2)C1 (stereo not drawn) [P-247, 4-(4-(3-(4-(5-Acetyl-3-(7-(difluoromethyl)-6-(1-methyl-1H-pyrazol-4-yl)-3,4-dihydroquinolin-1(2H)-yl)-4,5,6,7-tetrahydro-1H-pyrazolo[4,3-c]pyridin-1-yl)piperidin-1-yl)propyl)piperazin-1-yl)-2-(2,6-dioxopiperidin-3-yl)isoindoline-1,3-dione] | > 500 | < 20 | – |
| CC(=O)N1CCc2c(c(N3CCCc4cc(-c5cnn(C)c5)c(C(F)F)cc43)nn2C2CCN(C(=O)CCCN3CCC(C#Cc4cccc5c4ccn5C4CCC(=O)NC4=O)CC3)CC2)C1 (stereo not drawn) [P-223, 3-(4-((1-(4-(4-(5-Acetyl-3-(7-(difluoromethyl)-6-(1-methyl-1H-pyrazol-4-yl)-3,4-dihydroquinolin-1(2H)-yl)-4,5,6,7-tetrahydro-1H-pyrazolo[4,3-c]pyridin-1-yl)piperidin-1-yl)-4-oxobutyl)piperidin-4-yl)ethynyl)-1H-indol-1-yl)piperidine-2,6-dione] | 43.7 | 50 to 80 | – |
| CC(=O)N1CCc2c(c(N3CCCc4cc(-c5cnn(C)c5)c(C(F)F)cc43)nn2C2CCN(CCN3CCC(CCc4cccc5c4n(C)c(=O)n5C4CCC(=O)NC4=O)CC3)CC2)C1 (stereo not drawn) [P-252, 3-(4-(2-(1-(2-(4-(5-acetyl-3-(7-(difluoromethyl)-6-(1-methyl-1H-pyrazol-4-yl)-3,4-dihydroquinolin-1(2H)-yl)-4,5,6,7-tetrahydro-1H-pyrazolo[4,3-c]pyridin-1-yl)piperidin-1-yl)ethyl)piperidin-4-yl)ethyl)-3-methyl-2-oxo-2,3-dihydro-1H-benzo[d]imidazol-1-yl)piperidine-2,6-dione] | 0.1 | – | > 80 |
| CC(=O)N1CCc2c(c(N3CCCc4cc(-c5cnn(C)c5)c(C(F)F)cc43)nn2C2CCN(C(=O)CCCCCCCCCC(=O)Nc3cccc(NC4CCC(=O)NC4=O)c3)CC2)C1 (stereo not drawn) [P-265, 11-(4-(5-Acetyl-3-(7-(difluoromethyl)-6-(1-methyl-1H-pyrazol-4-yl)-3,4-dihydroquinolin-1(2H)-yl)-4,5,6,7-tetrahydro-1H-pyrazolo[4,3-c]pyridin-1-yl)piperidin-1-yl)-N-(3-((2,6-dioxopiperidin-3-yl)amino)phenyl)-11-oxoundecanamide] | 592 | < 20 | – |

Continued by falling IC50 [1], values first:

| IC50 [1] [nM] | inhibition at 0.01 µM (P300; p300, 10 nM, Table 4) [%] | SMILES | inhibition at 0.01 µM (P300) [%] |
| --- | --- | --- | --- |
| 21.6 | 50 to 80 | CC(=O)N1CCc2c(c(N3CCCc4cc(-c5cnn(C)c5)c(C(F)F)cc43)nn2C2CCN(C(=O)CCCN3CCC(CNc4ccc5c(c4)n(C)c(=O)n5C4CCC(=O)NC4=O)CC3)CC2)C1 (stereo not drawn) [P-217, 3-(5-(((1-(4-(4-(5-Acetyl-3-(7-(difluoromethyl)-6-(1-methyl-1H-pyrazol-4-yl)-3,4-dihydroquinolin-1(2H)-yl)-4,5,6,7-tetrahydro-1H-pyrazolo[4,3-c]pyridin-1-yl)piperidin-1-yl)-4-oxobutyl)piperidin-4-yl)methyl)amino)-3-methyl-2-oxo-2,3-dihydro-1H-benzo[d]imidazol-1-yl)piperidine-2,6-dione] | – |
| 17.6 | 50 to 80 | CC(=O)N1CCc2c(c(N3CCCc4cc(-c5cnn(C)c5)c(C(F)F)cc43)nn2C2CCN(Cc3ccc(COc4cccc5c4C(=O)N(C4CCC(=O)NC4=O)C5=O)cc3)CC2)C1 (stereo not drawn) [P-195, 4-((4-((4-(5-acetyl-3-(7-(difluoromethyl)-6-(1-methyl-1H-pyrazol-4-yl)-3,4-dihydroquinolin-1(2H)-yl)-4,5,6,7-tetrahydro-1H-pyrazolo[4,3-c]pyridin-1-yl)piperidin-1-yl)methyl)benzyl)oxy)-2-(2,6-dioxopiperidin-3-yl)isoindoline-1,3-dione] | – |
| 10.4 | > 80 | CC(=O)N1CCc2c(c(N3CCCc4cc(-c5cnn(C)c5)c(C(F)F)cc43)nn2C2CCN(CCCCC3CN(c4cccc5c4C(=O)N(C4CCC(=O)NC4=O)C5=O)C3)CC2)C1 (stereo not drawn) [P-201, 4-(3-(4-(4-(5-acetyl-3-(7-(difluoromethyl)-6-(1-methyl-1H-pyrazol-4-yl)-3,4-dihydroquinolin-1(2H)-yl)-4,5,6,7-tetrahydro-1H-pyrazolo[4,3-c]pyridin-1-yl)piperidin-1-yl)butyl)azetidin-1-yl)-2-(2,6-dioxopiperidin-3-yl)isoindoline-1,3-dione] | – |
| 3.2 | > 80 | CC(=O)N1CCc2c(c(N3CCCc4cc(-c5cnn(C)c5)c(C(F)F)cc43)nn2C2CCN(CCCN3CCC(CNc4cccc5c4C(=O)N(C4CCC(=O)NC4=O)C5=O)CC3)CC2)C1 (stereo not drawn) [P-193, 4-(((1-(3-(4-(5-acetyl-3-(7-(difluoromethyl)-6-(1-methyl-1H-pyrazol-4-yl)-3,4-dihydroquinolin-1(2H)-yl)-4,5,6,7-tetrahydro-1H-pyrazolo[4,3-c]pyridin-1-yl)piperidin-1-yl)propyl)piperidin-4-yl)methyl)amino)-2-(2,6-dioxopiperidin-3-yl)isoindoline-1,3-dione] | – |
| 2.6 | > 80 | CC(=O)N1CCc2c(c(N3CCCc4cc(-c5cnn(C)c5)c(C(F)F)cc43)nn2C2CCN(C(=O)CCCNc3ccc(C(=O)NC4CCC(=O)NC4=O)c4ncccc34)CC2)C1 (stereo not drawn) [P-253, 5-((4-(4-(5-acetyl-3-(7-(difluoromethyl)-6-(1-methyl-1H-pyrazol-4-yl)-3,4-dihydroquinolin-1(2H)-yl)-4,5,6,7-tetrahydro-1H-pyrazolo[4,3-c]pyridin-1-yl)piperidin-1-yl)-4-oxobutyl)amino)-N-(2,6-dioxopiperidin-3-yl)quinoline-8-carboxamide] | – |
| 1.3 | > 80 | CC(=O)N1CCc2c(c(N3CCCc4cc(-c5cnn(C)c5)c(C(F)F)cc43)nn2C2CCN(C(=O)CCN3CCC(C#Cc4cccc5c4n(C)c(=O)n5C4CCC(=O)NC4=O)CC3)CC2)C1 (stereo not drawn) [P-231, 3-(4-((1-(3-(4-(5-acetyl-3-(7-(difluoromethyl)-6-(1-methyl-1H-pyrazol-4-yl)-3,4-dihydroquinolin-1(2H)-yl)-4,5,6,7-tetrahydro-1H-pyrazolo[4,3-c]pyridin-1-yl)piperidin-1-yl)-3-oxopropyl)piperidin-4-yl)ethynyl)-3-methyl-2-oxo-2,3-dihydro-1H-benzo[d]imidazol-1-yl)piperidine-2,6-dione] | – |
| 0.3 | > 80 | CC(=O)N1CCc2c(c(N3CCCc4cc(-c5cnn(C)c5)c(C(F)F)cc43)nn2C2CCN(C(=O)CN3CCC(CCc4cccc5c4n(C)c(=O)n5C4CCC(=O)NC4=O)CC3)CC2)C1 (stereo not drawn) [P-228, 3-(4-(2-(1-(2-(4-(5-acetyl-3-(7-(difluoromethyl)-6-(1-methyl-1H-pyrazol-4-yl)-3,4-dihydroquinolin-1(2H)-yl)-4,5,6,7-tetrahydro-1H-pyrazolo[4,3-c]pyridin-1-yl)piperidin-1-yl)-2-oxoethyl)piperidin-4-yl)ethyl)-3-methyl-2-oxo-2,3-dihydro-1H-benzo[d]imidazol-1-yl)piperidine-2,6-dione] | – |
